The assay has as its target T1, human mGluR2 (Homo sapiens, UniProt Q14416).
T1 construct: expressed in transfected cells; host or cells: HEK293 clonal line
The experiment in a line: mGluR2 cAMP assay (HTRF) in HEK293 cells clonally expressing human mGluR2. In kind it is cell-based. The settings on record: HEK293 cells expressing human mGluR2, 1 μM forskolin, 1 μM LY-341495, 30 min. On the procedure:
• Cell Culture. Clonally expressed human mGluR2 in HEK293 background was glutamate starved overnight in media without glutamine (GIBCO MEM 12360), containing 10% FBS, 1% penicillin streptomycin. • cAMP Measurement. On the day of the assay, media was removed, cells washed with PBS, cells harvested and pelleted by centrifugation. Cell pellets were resuspended in stimulation buffer without forskolin and counted. A solution of 1.25×10^6 cells/mL was prepared and dispensed to plates using a Combi liquid handler (Thermo). A standard curve was created using a top concentration of cAMP of 1 μM in the stimulation buffer, 1:3 dilutions over 14 points in the absence of cells. Plates were read by time-resolved fluorescence at […] and a ratio was calculated via in house software, (665 nM/618 nM)*10^4. In house software converted the fluorescence value ratios to units of cAMP concentration, which is then used to calculate % inhibition for each test compound. • MGluR2 cAMP Assay Materials and Methods. Compounds were added to white, standard volume 384 non-binding surface plates (Corning 3574). Cells were resuspended in stimulation buffer consisting of Hanks Balanced Salt Solution (14175-095) pH 7.0, 20 mM HEPES, 2.0 mM CaCl2, 5.0 mM MgCl2, and 1 mM IBMX (Sigma 15879), 1 μM forskolin, and 1 μM LY-341495 for 30 min. Buffer without forskolin was used as a negative control. Solutions of D2 and cryptate detection reagents from the CISBIO dynamic cAMP kit (62AM4PEJ) were diluted 1:40 in lysis buffer. Lysis buffer consisted of 50 mM Phosphate Buffer pH 7.0, 800 mM Potassium Fluoride, 0.2% BSA, and 1.0% Triton. Assay reaction was terminated by addition of detection reagents in lysis buffer. One hour later, plates were read on a PE Viewlux. Data was extracted, and concentration response curves generated by fitting the data to a standard 4 parameter logistic equation from which EC50 values were determined.
T1 sequence (Q14416 19-872): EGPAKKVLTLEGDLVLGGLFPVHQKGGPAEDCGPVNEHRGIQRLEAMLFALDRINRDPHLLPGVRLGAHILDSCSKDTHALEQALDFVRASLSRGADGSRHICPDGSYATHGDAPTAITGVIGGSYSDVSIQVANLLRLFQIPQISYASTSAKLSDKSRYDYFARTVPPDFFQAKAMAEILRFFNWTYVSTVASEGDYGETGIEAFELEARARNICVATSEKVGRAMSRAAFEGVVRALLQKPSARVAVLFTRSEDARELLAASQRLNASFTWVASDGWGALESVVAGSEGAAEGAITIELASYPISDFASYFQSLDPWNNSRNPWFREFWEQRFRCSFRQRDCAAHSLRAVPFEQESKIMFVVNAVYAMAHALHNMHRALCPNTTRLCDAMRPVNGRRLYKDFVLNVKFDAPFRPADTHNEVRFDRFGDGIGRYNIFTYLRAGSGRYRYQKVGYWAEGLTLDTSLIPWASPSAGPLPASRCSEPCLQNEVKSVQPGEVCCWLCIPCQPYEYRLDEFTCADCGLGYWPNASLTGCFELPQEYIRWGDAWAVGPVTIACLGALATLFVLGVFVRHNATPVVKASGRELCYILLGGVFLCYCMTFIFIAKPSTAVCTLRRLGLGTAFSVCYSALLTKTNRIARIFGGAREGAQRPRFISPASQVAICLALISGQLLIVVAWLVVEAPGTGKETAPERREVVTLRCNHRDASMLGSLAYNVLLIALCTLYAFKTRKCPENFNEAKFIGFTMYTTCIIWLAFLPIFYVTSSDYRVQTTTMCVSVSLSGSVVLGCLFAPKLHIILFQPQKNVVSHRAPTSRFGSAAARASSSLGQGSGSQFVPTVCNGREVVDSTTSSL
By EC50 is commonly meant the concentration giving half of the maximal effect. Lower therefore signals greater potency. Turning to `Fc1ccc(C2CC2CNc2ccn3c(CC4CC4)nnc3c2Cl)cc1` (racemic) [Example 1, 8-chloro-3-(cyclopropylmethyl)-N-((2-(4-fluorophenyl)cyclopropyl)methyl)-[1,2,4]triazolo[4,3-a]pyridin-7-amine], the EC50 amounted to 9 nM. This lies in the single-digit nanomolar range.

As for `Clc1c(NC[C@@H]2CCC[C@H]2c2ccccc2)ccn2c(CC3CC3)nnc12` (racemic) [Example 3, (+/−)Trans-8-chloro-3-(cyclopropylmethyl)-N-((2-phenylcyclopentyl)methyl)-[1,2,4]triazolo[4,3-a]pyridin-7-amine], the EC50 is 5 nM. This EC50 is about 1.8-fold lower than that of the molecule before.

`Clc1c(NC[C@@H]2C[C@H]2c2ccccc2)ccn2c(CC3CC3)nnc12` (relative stereo) [Example 4, Trans-8-chloro-3-(cyclopropylmethyl)-N-((2-phenylcyclopropyl)methyl)-[1,2,4]triazolo[4,3-a]pyridin-7-amine] displayed an EC50 of 5 nM.

On to `COc1ccccc1[C@@H]1C[C@H]1CNc1ccn2c(CC3CC3)nnc2c1Cl` (relative stereo) [Example 6, Trans-8-chloro-3-(cyclopropylmethyl)-N-((2-(2-methoxyphenyl)cyclopropyl)methyl)-[1,2,4]triazolo[4,3-a]pyridin-7-amine], for which the EC50 worked out at 7 nM.

Take `FC(F)Oc1ccccc1[C@@H]1C[C@H]1CNc1ccn2c(CC3CC3)nnc2c1Cl` (relative stereo) [Example 7, Trans-8-chloro-3-(cyclopropylmethyl)-N-((2-(2-(difluoromethoxy)phenyl)cyclopropyl)methyl)-[1,2,4]triazolo[4,3-a]pyridin-7-amine]: the EC50 was determined as 6 nM. The EC50 values of the last two molecules are within 1.5-fold of each other.

As to `FC(F)(F)Oc1ccccc1[C@@H]1C[C@H]1CNc1ccn2c(CC3CC3)nnc2c1Cl` (relative stereo) [Example 9, Trans-8-chloro-3-(cyclopropylmethyl)-N-((2-(2-(trifluoromethoxy)phenyl)cyclopropyl)methyl)-[1,2,4]triazolo[4,3-a]pyridin-7-amine], the EC50 is 4 nM. Against the preceding molecule, the EC50 is about 1.5-fold lower.

With `Clc1c(NC[C@H]2CCC[C@@H]2c2ccccc2)ccn2c(CC3CC3)nnc12` (single isomer, unassigned) [Example 45], the EC50 stood at 12 nM.

On to `Clc1c(NC[C@@H]2CCC[C@H]2c2ccccc2)ccn2c(CC3CC3)nnc12` (single isomer, unassigned) [Example 46], for which the EC50 is 5 nM.

In the case of `Fc1ccc([C@H]2C[C@@H]2CNc2ccn3c(CC(F)(F)F)cnc3c2C(F)(F)F)cc1` (stereo in doubt) [Example 31, N-(((1S,2S)-2-(4-Fluorophenyl)cyclopropyl)methyl)-3-(2,2,2-trifluoroethyl)-8-(trifluoromethyl)imidazo[1,2-a]pyridin-7-amine], the EC50 turned out to be 24 nM.

Molecule `Fc1ccc([C@@H]2C[C@H]2CNc2ccn3c(CC(F)(F)F)cnc3c2C(F)(F)F)cc1` (stereo in doubt) [Example 32, N-(((1R,2R)-2-(4-Fluorophenyl)cyclopropyl)methyl)-3-(2,2,2-trifluoroethyl)-8-(trifluoromethyl)imidazo[1,2-a]pyridin-7-amine] had an EC50 of 44 nM. Compared with the last molecule, the EC50 is about 1.8-fold higher.

Regarding `Clc1c(NC2CCC(c3ccccc3)C2)ccn2c(CC3CC3)nnc12` (stereo not drawn) [Example 2, 8-Chloro-3-(cyclopropylmethyl)-N-(3-phenylcyclopentyl)-[1,2,4]triazolo[4,3-a]pyridin-7-amine], the midpoint of the response, the EC50, lay at 26 nM.

As to `Fc1ccc([C@H]2C[C@@H]2CNc2ccn3c(CC4CC4)nnc3c2Cl)cc1` [Example 5, 8-Chloro-3-(cyclopropylmethyl)-N-(((1S,2S)-2-(4-fluorophenyl)cyclopropyl)methyl)-[1,2,4]triazolo[4,3-a]pyridin-7-amine], the EC50 was determined as 5 nM. This EC50 lies about 5.2-fold lower than the previous one.

Molecule `COc1cccc([C@H]2C[C@@H]2CNc2ccn3c(CC4CC4)nnc3c2Cl)c1` [Example 8, 8-Chloro-3-(cyclopropylmethyl)-N-(((1S,2S)-2-(3-methoxyphenyl)cyclopropyl)methyl)-[1,2,4]triazolo[4,3-a]pyridin-7-amine] registered a 50% effective concentration (EC50) of 12 nM.

The molecule `COc1c(F)ccc(F)c1[C@H]1C[C@@H]1CNc1ccn2c(CC3CC3)nnc2c1Cl` [Example 10, 8-Chloro-3-(cyclopropylmethyl)-N-(((1S,2S)-2-(3,6-difluoro-2-methoxyphenyl)cyclopropyl)methyl)-[1,2,4]triazolo[4,3-a]pyridin-7-amine] had an EC50 of 6 nM.

`Clc1c(NC[C@H]2C[C@@H]2c2cccc3c2CCO3)ccn2c(CC3CC3)nnc12` [Example 11, 8-Chloro-3-(cyclopropylmethyl)-N-(((1S,2S)-2-(2,3-dihydrobenzofuran-4-yl)cyclopropyl)methyl)-[1,2,4]triazolo[4,3-a]pyridin-7-amine]: the EC50 was 12 nM.

In turn, `Fc1cnc(C2CC2CNc2ccn3c(CC4CC4)nnc3c2Cl)nc1` (stereo not drawn) [Example 12, 8-Chloro-3-(cyclopropylmethyl)-N-((2-(5-fluoropyrimidin-2-yl)cyclopropyl)methyl)-[1,2,4]triazolo[4,3-a]pyridin-7-amine] displayed an EC50 of 83 nM.

In turn, `Fc1cnc(C2CC2CNc2ccn3c(CC4CC4)nnc3c2C(F)(F)F)nc1` (stereo not drawn) [Example 13, 3-(Cyclopropylmethyl)-N-((2-(5-fluoropyrimidin-2-yl)cyclopropyl)methyl)-8-(trifluoromethyl)-[1,2,4]triazolo[4,3-a]pyridin-7-amine] displayed an EC50 of 102 nM.

In turn, `CC(Nc1ccn2c(CC3CC3)nnc2c1Cl)[C@@H]1C[C@H]1c1ccc(F)cc1` (stereo partly drawn) [Example 14, 8-Chloro-3-(cyclopropylmethyl)-N-(1-((1R,2R)-2-(4-fluorophenyl)cyclopropyl)ethyl)-[1,2,4]triazolo[4,3-a]pyridin-7-amine] showed an EC50 of 55 nM.

`CC(Nc1ccn2c(CC3CC3)nnc2c1Cl)[C@H]1C[C@@H]1c1ccc(F)cc1` (stereo partly drawn) [Example 15, 8-Chloro-3-(cyclopropylmethyl)-N-(1-((1S,2S)-2-(4-fluorophenyl)cyclopropyl)ethyl)-[1,2,4]triazolo[4,3-a]pyridin-7-amine] registered an EC50 of 31 nM.

On to `Fc1ccc(C2(CNc3ccn4c(CC5CC5)nnc4c3Cl)CC2)cc1` [Example 16, 8-chloro-3-(cyclopropylmethyl)-N-((1-(4-fluorophenyl)cyclopropyl)methyl)-[1,2,4]triazolo[4,3-a]pyridin-7-amine], for which a half-maximal effect (EC50) was put at 46 nM.

`N#Cc1ccccc1C1CC1CNc1ccn2c(CC3CC3)nnc2c1Cl` (stereo not drawn) [Example 17, 2-(2-(((8-chloro-3-(cyclopropylmethyl)-[1,2,4]triazolo[4,3-a]pyridin-7-yl)amino)methyl)cyclopropyl)benzonitrile] returned an EC50 of 6 nM.

`Clc1c(NCC2CC2c2ccncc2)ccn2c(CC3CC3)nnc12` (stereo not drawn) [Example 18, 8-Chloro-3-(cyclopropylmethyl)-N-((2-(pyridin-4-yl)cyclopropyl)methyl)-[1,2,4]triazolo[4,3-a]pyridin-7-amine] came in with an EC50 of 244 nM.

Turning to `Clc1c(NCC2CC2c2cccnc2)ccn2c(CC3CC3)nnc12` (stereo not drawn) [Example 19, 8-chloro-3-(cyclopropylmethyl)-N-((2-(pyridin-3-yl)cyclopropyl)methyl)-[1,2,4]triazolo[4,3-a]pyridin-7-amine], a half-maximal response (EC50) required 367 nM. This EC50 lies about 1.5-fold higher than the previous one.

As for `Fc1ccc([C@H]2C[C@@H]2CNc2ccn3c(CC4CC4)nnc3c2C(F)(F)F)cc1` [Example 20, 3-(Cyclopropylmethyl)-N-(((1S,2S)-2-(4-fluorophenyl)cyclopropyl)methyl)-8-(trifluoromethyl)-[1,2,4]triazolo[4,3-a]pyridin-7-amine], a half-maximal response (EC50) required 2 nM.

(Values after patent publication US8765767B2, “Positive allosteric modulators of mGluR2” (Bristol-Myers Squibb Company, priority 2012, dated 2014).)
